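96-well plates; 48 h exposure; 5 concentrations. Endpoints by linear interpolation between flanking doses. Not reached: highest tested concentration assigned. GI50 = concentration required for 50% inhibition of growth. TGI: total growth inhibition.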
Experiments:
Test in all cases: growth of human tumour cells (NCI), 48 h
KM12 colon = tested on: KM12 colon
MDA-MB-231 breast = tested on: MDA-MB-231 breast
NCI/ADR-RES ovarian = tested on: NCI/ADR-RES ovarian
HS 578T breast = tested on: HS 578T breast
HCC-2998 colon = tested on: HCC-2998 colon
NCI-H23 lung = tested on: NCI-H23 lung
SN12C renal = tested on: SN12C renal
IGROV1 ovarian = tested on: IGROV1 ovarian
HCT-116 colon = tested on: HCT-116 colon
M14 melanoma = tested on: M14 melanoma

Structure (SMILES) | GI50 (KM12 colon) | TGI (KM12 colon) | GI50 (MDA-MB-231 breast) | TGI (MDA-MB-231 breast) | GI50 (NCI/ADR-RES ovarian) | TGI (NCI/ADR-RES ovarian) | GI50 (HS 578T breast) | TGI (HS 578T breast) | GI50 (HCC-2998 colon) | TGI (HCC-2998 colon) | GI50 (NCI-H23 lung) | TGI (NCI-H23 lung) | GI50 (SN12C renal) | TGI (SN12C renal) | GI50 (IGROV1 ovarian) | TGI (IGROV1 ovarian) | GI50 (HCT-116 colon) | TGI (HCT-116 colon) | GI50 (M14 melanoma) | TGI (M14 melanoma)
O=C(CCCn1c2c(sc3ccccc32)c(=O)n2nnc(-c3ccccc3)c12)NCCc1cnc[nH]1 | 0.593 µM | 3.19 µM | 1.91 µM | 3.5 µM | 0.972 µM | > 24.4 µM | 0.783 µM | 2.19 µM | 1.26 µM | 3.41 µM | 2.71 µM | 9.6 µM | < 0.0105 µM | 2.01 µM | 0.0997 µM | 2.07 µM | – | – | – | –
O=C(/C=C/C12c3ccccc3C(c3ccccc31)C1C(=O)N(c3ccc(Cl)cc3)C(=O)C12)c1ccccn1 (stereo not drawn) | 0.345 µM | – | 0.318 µM | 2.23 µM | 0.332 µM | > 100 µM | – | – | 0.244 µM | 0.658 µM | 0.342 µM | 1.36 µM | 0.32 µM | 1.57 µM | 0.248 µM | 0.643 µM | 0.183 µM | 0.423 µM | 0.3 µM | 1.19 µM
Cc1ccc([Se](=C(C(=O)c2ccccc2)C(=O)c2ccccc2)c2ccc(C)cc2)cc1 | – | 44.1 µM | – | 35.2 µM | – | > 100 µM | – | 72.9 µM | – | – | – | 59.2 µM | – | 36.7 µM | – | 78.5 µM | – | > 100 µM | – | > 100 µM
CC(c1cc(Cl)ccc1O)c1cc(Cl)ccc1O | 3.22 µM | 10.2 µM | 3.88 µM | 16.2 µM | 3.15 µM | 9.16 µM | 2.74 µM | 7.19 µM | 3.84 µM | 12.8 µM | 2.83 µM | 8.32 µM | 3.66 µM | 16.1 µM | – | – | 3.38 µM | 10.3 µM | 2.97 µM | 9.82 µM
O=C([O][Hg][c]1ccccc1)c1ccccc1 | 11.6 µM | 24.1 µM | 1.86 µM | 4.62 µM | 3.32 µM | > 27.4 µM | 1.1 µM | 5.87 µM | 2 µM | 3.82 µM | 2.05 µM | 4.84 µM | – | – | 1.48 µM | 3.58 µM | 1.45 µM | 2.99 µM | 1.36 µM | 2.94 µM
Cc1cc(Cl)nc2ccc(Cc3ccc4nc(Cl)cc(C)c4c3)cc12 | – | > 100 µM | – | > 100 µM | – | > 100 µM | – | > 100 µM | – | – | – | > 100 µM | – | > 100 µM | – | > 100 µM | – | > 100 µM | – | > 100 µM
CCCCCCCCCCCCCC[n+]1ccccc1 | 0.855 µM | 2.25 µM | 0.771 µM | 2.52 µM | 8.65 µM | 46.8 µM | 1.59 µM | 5.13 µM | 0.877 µM | 2.31 µM | 0.507 µM | 3.02 µM | 0.926 µM | 2.5 µM | – | – | – | – | 0.459 µM | 1.98 µM
Oc1c(C(Nc2ccccn2)c2cccc(Oc3ccccc3)c2)ccc2cccnc12 (stereo not drawn) | 0.45 µM | 23.4 µM | 0.617 µM | 19.5 µM | 0.416 µM | > 100 µM | 0.74 µM | > 100 µM | 1.84 µM | 32.6 µM | 0.839 µM | > 100 µM | 0.591 µM | 20.9 µM | 0.538 µM | 21.5 µM | 0.449 µM | 16.6 µM | – | –
Cc1ccc(C)c2c1C(=O)N(c1ccc(F)cc1F)C2=O | > 100 µM | > 100 µM | 22.9 µM | > 100 µM | > 100 µM | > 100 µM | > 100 µM | > 100 µM | – | – | > 100 µM | > 100 µM | > 100 µM | > 100 µM | > 100 µM | > 100 µM | > 100 µM | > 100 µM | > 100 µM | > 100 µM
O=C(CN1CCN(Cc2ccccc2Cl)CC1)NC1CC(=O)c2c(Br)sc(Br)c21 (stereo not drawn) | 20.9 µM | 40.6 µM | 21.1 µM | 39.8 µM | 19.6 µM | 41.9 µM | 29.4 µM | 71.5 µM | 19.8 µM | 35.1 µM | – | – | 19.1 µM | 35.9 µM | 18.2 µM | 34.5 µM | 17.3 µM | 32.9 µM | 17.2 µM | 31.7 µM
COC(=O)c1ccc2nc(-c3cc4ccccc4n3C)n(CCCCOc3cc4c(cc3OC)C(=O)N3CCC[C@H]3C=N4)c2c1 | 0.255 µM | 0.787 µM | 0.366 µM | 2.17 µM | 3.02 µM | 9.8 µM | 0.276 µM | 1.42 µM | – | – | 0.485 µM | 1.21 µM | 0.361 µM | 2.17 µM | 0.254 µM | 0.889 µM | 0.528 µM | 2.61 µM | 0.713 µM | 2.07 µM
O=C(COc1ccccc1Cl)N1N=C(c2ccccc2)CC1(O)c1ccccc1 (stereo not drawn) | – | 41.8 µM | – | – | – | – | – | – | – | 33.6 µM | – | 25.1 µM | – | 25.6 µM | – | 55.7 µM | – | 51.3 µM | – | 31.9 µM
COc1ccc(Nc2nc3cc(C(F)(F)F)ccc3nc2-c2ccccc2)cc1OC | – | > 100 µM | – | – | – | – | – | – | – | > 100 µM | – | > 100 µM | – | > 100 µM | – | > 100 µM | – | > 100 µM | – | > 100 µM
OCC1OC2c3ccccc3COC2C1OCc1ccccc1 (stereo not drawn) | – | > 100 µM | – | – | – | – | – | – | – | > 100 µM | – | > 100 µM | – | > 100 µM | – | > 100 µM | – | > 100 µM | – | > 100 µM
CNC(=O)c1nn(C)c2c1C(C)(C)Cc1cnc(Nc3cccc(N4CCN(C)CC4)c3)nc1-2 | 0.0514 µM | 3.43 µM | – | – | 2.1 µM | > 48.8 µM | 0.204 µM | 2.46 µM | 0.83 µM | 14.9 µM | 0.372 µM | 9.81 µM | 0.323 µM | 31 µM | 0.166 µM | 11.6 µM | 0.176 µM | 31.2 µM | 0.204 µM | 11.8 µM
CCc1ccccc1NC(=O)C(C#N)C1=C(Cl)C(=O)c2ccccc2C1=O (stereo not drawn) | – | 28.4 µM | – | 22 µM | – | 34.2 µM | – | 60.6 µM | – | – | – | 29.5 µM | – | 27.9 µM | – | 32.8 µM | – | 28.8 µM | – | 21.8 µM
